Source: patent US20130203709A1, “ACYLSULFONAMIDES AND PROCESSES FOR PRODUCING THE SAME” (priority 2010, published 2013)
Read-outs that look alike come from different tables or passages of the source.

Assays:
Mcl-1 = Mcl-1 (Homo sapiens, UniProt Q07820); assay: fluorescence polarization (FP) assay, disruption of the Mcl-1/BH3 interaction; type: binding; settings: for inhibition at 100 µM: read-out: % Inhibition Mcl-1
Bcl-XL = Bcl-XL (Homo sapiens, UniProt Q07817); assay: fluorescence polarization (FP) assay, disruption of the Bcl-XL/BH3 interaction; type: binding; settings: for inhibition at 100 µM: read-out: % Inhibition Bcl-XL; for inhibition at 50 µM: 50 μM acylsulfonamide, disruption of Bcl-XL/BH3 interaction in FP assay, read-out: Percentage Inhibition at 50 μM acylsulfonamide concentrations
Bcl-XL, sequence (Q07817 whole entry, the tested form may be a part): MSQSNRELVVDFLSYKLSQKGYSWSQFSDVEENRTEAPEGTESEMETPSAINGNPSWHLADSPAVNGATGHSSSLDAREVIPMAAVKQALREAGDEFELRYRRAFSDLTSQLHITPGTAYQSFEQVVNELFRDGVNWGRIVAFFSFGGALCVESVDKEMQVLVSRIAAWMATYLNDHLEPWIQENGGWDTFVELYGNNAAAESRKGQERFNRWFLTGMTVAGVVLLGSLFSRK

[1] = reactive fragments (SZ, TA), 100 μM per FIG. 22 legend, FP assay

Mcl-1, sequence (Q07820 whole entry): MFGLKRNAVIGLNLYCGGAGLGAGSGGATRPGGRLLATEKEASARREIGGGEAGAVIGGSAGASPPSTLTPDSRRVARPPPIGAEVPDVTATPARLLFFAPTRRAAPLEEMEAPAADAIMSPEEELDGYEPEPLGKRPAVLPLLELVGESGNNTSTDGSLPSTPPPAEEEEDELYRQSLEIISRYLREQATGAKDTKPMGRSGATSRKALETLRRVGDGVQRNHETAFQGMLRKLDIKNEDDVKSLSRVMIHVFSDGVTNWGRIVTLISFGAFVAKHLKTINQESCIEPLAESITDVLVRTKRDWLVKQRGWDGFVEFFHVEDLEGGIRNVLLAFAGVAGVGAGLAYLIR

SMILES	inhibition at 100 µM (Mcl-1; [1]) [%]	inhibition at 100 µM (Bcl-XL; [1]) [%]	inhibition at 50 µM (Bcl-XL) [%]	other results
Cc1nc(-c2ccccc2)sc1C(=O)NS(=O)(=O)c1ccc(CN2CCN(c3ccccc3)CC2)cc1 [SZ1TA3]			6	
O=C(NS(=O)(=O)c1ccc(CN(CSc2ccccc2)Cc2ccc3c(c2)OCO3)cc1)c1ccc(OC(F)(F)F)cc1 [SZ31TA8]				selectivity index (Mcl-1; calculated, Mcl-1 over Bcl-XL): 19
[N-]=[N+]=NS(=O)(=O)c1ccc(CN(CCSc2ccccc2)Cc2ccc(S(=O)(=O)NC(=O)c3ccccc3)cc2)cc1 [SZ9TA1]			80	
O=C(NS(=O)(=O)c1ccc(CN(CCSc2ccccc2)Cc2c(F)cccc2Cl)cc1)c1ccccc1 [SZ15TA1]				fold less active than SZ31TA2 (Mcl-1; Mcl-1 PPIM activity relative to SZ31TA2): approximately 10 fold
COc1cc2c(cc1OC)C(c1ccccc1)N(CC(=O)NS(=O)(=O)c1ccc(CN(C)CCc3ccccc3)cc1)CC2 (stereo not shown) [SZ2TA4]			25	
CC(=O)Nc1ccc(S(=O)(=O)NC(=O)c2ccc(OC(F)(F)F)cc2)cc1 [SZ3TA8]			0	
CC1(C)CCN(c2ccc(C(=O)O)cc2)CC1 [TA2]	6.8 ± 6.7	< 1		
CC1(C)CCN(c2ccc(C(=O)NS(=O)(=O)c3ccc(CN(CSc4ccccc4)Cc4ccc5c(c4)OCO5)cc3)cc2)CC1 [SZ31TA2]				IC50 (Mcl-1; FP assay, read-out: IC50 against Mcl-1): 3.3 µM; ligand efficiency (Mcl-1; against Mcl-1): 0.159
COc1cc(OC)cc(C(=O)NS(=O)(=O)c2ccc(CN(CCSc3ccccc3)Cc3ccc(S(=O)(=O)N=[N+]=[N-])cc3)cc2)c1 [SZ9TA5]			60	
CC(=O)Nc1ccc(S(=O)(=O)NC(=O)c2ccco2)cc1 [SZ3TA9]			0	
Cc1nc(-c2ccccc2)sc1C(=O)NS(=O)(=O)c1ccc(CN(C)CCc2ccccc2)cc1 [SZ2TA3]			7	
Cc1nc(-c2ccccc2)sc1C(=O)NS(=O)(=O)c1ccc(CN(CCSc2ccccc2)Cc2ccc(S(=O)(=O)N=[N+]=[N-])cc2)cc1 [SZ9TA3]			22	
O=C(NS(=O)(=O)c1ccc(NCCSc2ccccc2)c([N+](=O)[O-])c1)c1ccccc1 [SZ4TA1]			14	
[N-]=[N+]=NS(=O)(=O)c1ccc(NCCSc2ccccc2)c([N+](=O)[O-])c1 [SZ4]				inhibition at 100 µM (Mcl-1): 23.4 ± 14.9%; inhibition at 100 µM (Bcl-XL): < 1%
Cc1ccc(-c2ccc(C(=O)O)cc2)cc1 [SK_2_170]	6.8 ± 1.3	7 ± 13		
[N-]=[N+]=NS(=O)(=O)c1ccc(-c2ccc(C(F)(F)F)cc2)cc1 [SZ16B]	1.3 ± 2.4	1.1 ± 1.2		
[N-]=[N+]=NS(=O)(=O)CCN1CCCC2CCCCC21 (stereo not shown) [SZ22]	1.2 ± 1.2	< 1		

SMILES	inhibition at 100 µM (Mcl-1; [1]) [%]	inhibition at 100 µM (Bcl-XL; [1]) [%]	inhibition at 50 µM (Bcl-XL) [%]	other results
CC(=O)Nc1ccc(S(=O)(=O)NC(=O)c2cccc([N+](=O)[O-])c2)cc1 [SZ3TA6]			0	
CC1(C)CCN(c2ccc(C(=O)NS(=O)(=O)c3ccc(CN(CCSc4ccccc4)Cc4ccc(S(=O)(=O)N=[N+]=[N-])cc4)cc3)cc2)CC1 [SZ9TA2]			38	
CC(=O)Nc1ccc(S(=O)(=O)NC(=O)c2cccc3ccccc23)cc1 [SZ3TA7]			0	
[N-]=[N+]=NS(=O)(=O)c1ccc(Cl)cc1 [SZ18]				% Inhibition Mcl-1 (Mcl-1; [1]): <1%; % Inhibition Bcl-XL (Bcl-XL; [1]): <1%
Cc1ccc(S(=O)(=O)NC(=O)c2ccc(N3CCC(C)(C)CC3)cc2)cc1 [SZ5TA2]			28	
CN(CCc1ccccc1)Cc1ccc(S(=O)(=O)NC(=O)c2ccc(N3CCC(C)(C)CC3)cc2)cc1 [SZ2TA2]			9	
CC(=O)Nc1ccc(S(=O)(=O)NC(=O)c2ccccc2)cc1 [SZ3TA1]			0	
CC1(C)CCN(c2ccc(C(=O)NS(=O)(=O)c3ccc(NCCSc4ccccc4)c([N+](=O)[O-])c3)cc2)CC1 [SZ4TA2]			100	IC50 against Bcl-XL (in words) (Bcl-XL): in the nM range
[N-]=[N+]=NS(=O)(=O)c1ccc(COc2ccccc2[N+](=O)[O-])cc1 [SZ13]				% Inhibition Mcl-1 (Mcl-1; [1]): <1%; % Inhibition Bcl-XL (Bcl-XL; [1]): 3.8 ± 4.1%
[N-]=[N+]=NS(=O)(=O)c1ccc(CN(CCSc2ccccc2)Cc2ccc(S(=O)(=O)N=[N+]=[N-])cc2)cc1 [SZ9]				inhibition at 100 µM (Mcl-1): 13 ± 1.4%; inhibition at 100 µM (Bcl-XL): 4.7 ± 4%
CC1(C)CCN(c2ccc(C(=O)NS(=O)(=O)c3ccc4ccc(S(=O)(=O)NCCSc5ccccc5)cc4c3)cc2)CC1 [SZ7TA2]			76	
COc1ccc(S(=O)(=O)N=[N+]=[N-])cc1 [SZ19]				% Inhibition Mcl-1 (Mcl-1; [1]): <1%; % Inhibition Bcl-XL (Bcl-XL; [1]): <1%
Cc1ccc(S(=O)(=O)N=[N+]=[N-])cc1 [SZ5]				% Inhibition Mcl-1 (Mcl-1; [1]): 1.2 ± 7.9%; % Inhibition Bcl-XL (Bcl-XL; [1]): 2.3 ± 1.1%
Cc1ccc(S(=O)(=O)NC(=O)c2ccccc2)cc1 [SZ5TA1]			29	
Cc1ccccc1S(=O)(=O)N=[N+]=[N-] [SZ20]				% Inhibition Mcl-1 (Mcl-1; [1]): 6.2 ± 2.1%; % Inhibition Bcl-XL (Bcl-XL; [1]): 1.4 ± 1.6%
[N-]=[N+]=NS(=O)(=O)c1ccc(NCc2ccc(Br)cc2)cc1 [SZ29]				inhibition at 100 µM (Mcl-1): 5.7 ± 4.6%; inhibition at 100 µM (Bcl-XL): < 1%
CN(CCc1ccccc1)Cc1ccc(S(=O)(=O)NC(=O)c2ccccc2)cc1 [SZ2TA1]			2	

More lines, main results first:

inhibition at 100 µM (Mcl-1; [1]) [%]	inhibition at 100 µM (Bcl-XL; [1]) [%]	inhibition at 50 µM (Bcl-XL) [%]	SMILES	other results
3.6 ± 12.7	4 ± 1.2		O=C(O)c1ccc(OC(F)(F)F)cc1 [TA8]	
< 1	< 1		[N-]=[N+]=NS(=O)(=O)CCN(CCSc1ccccc1)Cc1ccc2c(c1)OCO2 [SZ28]	
1.5 ± 0.7	< 1		COc1cc2c(cc1OC)C(c1ccccc1)N(CC(=O)O)CC2 (stereo not shown) [TA4]	
2.4 ± 6.8	< 1		O=C(O)c1cccc2ccccc12 [TA7]	
25.1 ± 0.7	10 ± 0.9		[N-]=[N+]=NS(=O)(=O)c1ccc(CN(CCSc2ccccc2)Cc2c(F)cccc2Cl)cc1 [SZ15]	
< 1	< 1		[N-]=[N+]=NS(=O)(=O)CCN(Cc1ccccc1)Cc1ccccc1 [SZ26]	
< 1	< 1		[N-]=[N+]=NS(=O)(=O)c1ccc(CNc2cccc([N+](=O)[O-])c2)cc1 [SZ12]	
< 1	2 ± 1.7		O=C(O)c1ccno1 [TA10]	
2.7 ± 7.5	< 1		[N-]=[N+]=NS(=O)(=O)CCN1CCC(Cc2ccccc2)CC1 [SZ24]	
< 1	< 1		O=C(O)c1ccco1 [TA9]	
< 1	< 1		O=C(O)c1cccc([N+](=O)[O-])c1 [TA6]	
3.4 ± 0.2	4.6 ± 4.7		[N-]=[N+]=NS(=O)(=O)c1ccc2ccc(S(=O)(=O)NCCSc3ccccc3)cc2c1 [SZ6]	
1.3 ± 13.4	< 1		COc1cc(OC)cc(C(=O)O)c1 [TA5]	
1.4 ± 3.6	< 1		Cc1nc(-c2ccccc2)sc1C(=O)O [TA3]	
< 1	< 1		CCN(CC)c1ccc(CNc2ccc(S(=O)(=O)N=[N+]=[N-])cc2)cc1 [SZ30]	
2.1 ± 3.3	7.9 ± 5.8		[N-]=[N+]=NS(=O)(=O)c1ccc(COc2ccc3c(=O)cc(-c4ccccc4)oc3c2)cc1 [SZ14]	
< 1	< 1		[N-]=[N+]=NS(=O)(=O)CCN1CCN(Cc2ccc3c(c2)OCO3)CC1 [SZ25]	
49.3 ± 3.3	1.1		CN(C)c1cccc2c(S(=O)(=O)N=[N+]=[N-])cccc12 [SZ21]	
< 1	1.9 ± 3.8		[N-]=[N+]=NS(=O)(=O)c1ccc(CN(CCSc2ccccc2)Cc2ccc(S(N)(=O)=O)cc2)cc1 [SZ10]	
< 1	< 1		[N-]=[N+]=NS(=O)(=O)c1ccc(CN(CCSc2ccccc2)Cc2ccc3c(c2)OCO3)cc1 [SZ31]	
3.6 ± 5.2	3.3 ± 2.1		[N-]=[N+]=NS(=O)(=O)CCN1CCc2ccccc2C1 [SZ23]	
13.9 ± 0.05	4 ± 0.1		COc1cc2c(cc1OC)C(c1ccccc1)N(CCS(=O)(=O)N=[N+]=[N-])CC2 (stereo not shown) [SZ27]	
< 1	< 1		COc1cc2c(cc1OC)C(c1ccccc1)N(Cc1ccc(S(=O)(=O)N=[N+]=[N-])cc1)CC2 (stereo not shown) [SZ11]	
< 1	6.7 ± 4.5		CC(=O)Nc1ccc(S(=O)(=O)N=[N+]=[N-])cc1 [SZ3]	
< 1	2.2 ± 0.7		CC(C)(C)c1ccc(-c2ccc(S(=O)(=O)N=[N+]=[N-])cc2)cc1 [SZ8]	
4 ± 1.6	2.6 ± 7.8		COc1cccc(CN(CCSc2ccccc2)Cc2ccc(S(=O)(=O)N=[N+]=[N-])cc2)c1 [SZ17]	
